Several values for one entry are separate records, joined by “and”; a condition that tells them apart may be missing. Identical values can stand only once. Counter-ions that a name gives are not always drawn.
Experiment: Food and acidic beverage effect on bioavailability of ATR-101 tablets, 3-way crossover plasma PK study
Assay type: in vivo, human
Details: single oral 500 mg; for kel: in h-1
Experimental: To evaluate the effects of food and of an acidic beverage on bioavailability of ATR-101 tablets prepared according to Example 2 (see Table 2), an open-label, randomized, 3-period, 3-way crossover, 3-sequence study was carried out with fourteen healthy, adult, non-tobacco using male and female (non-childbearing potential only) human subjects.
Three different treatments A, B, and C were administered as follows:
Treatment A: 500 mg ATR-101 (1×500 mg tablet) administered with water at Hour 0 on Day 1 following an overnight fast.
Treatment B: 500 mg ATR-101 (1×500 mg tablet) administered with water at Hour 0, 30 minutes after the start of a high-fat breakfast, on Day 1.
Treatment C: 500 mg ATR-101 (1×500 mg tablet) administered with Coca-Cola® Classic at Hour 0 on Day 1 following an overnight fast.
On Day 1 of Period 1, subjects were randomized to one of 3 treatment sequences: ABC, BCA, or CBA. For Treatments A and B, ATR-101 was administered orally with approximately 240 mL of water. For Treatment C, ATR-101 was administered orally with approximately 240 mL of Coca-Cola® Classic. Water (except water provided with dosing for Treatments A and B) was restricted 1 hour prior to and 1 hour after each study drug administration, but was allowed ad libitum at all other times. Other fluids were given as part of the standard meals (including the breakfast administered prior to study drug dosing for Treatment B) and/or snacks, but were restricted at all other times (except for the Coca-Cola® Classic beverage provided with dosing in Treatment C) throughout the confinement period.
For Treatments A and C, subjects fasted overnight for at least 10 hours prior to study drug administration and continued the fast for at least 4 hours post-dose.
For Treatment B, subjects were required to fast overnight for at least 10 hours until 30 minutes prior to study drug administration, when they were given breakfast which was entirely consumed within 30 minutes. A representative breakfast includes 2 slices of buttered toast, 2 fried eggs, 2 strips of bacon, 4 oz of hash brown potatoes, and 240 mL of whole milk.
On Day 1 of each period, a standard lunch and dinner was provided at approximately 4 and 9 hours post-dose, respectively, and a snack was also offered at approximately 12 hours post-dose. On other days when confined in the CRU, standard meals and/or snacks were provided at appropriate times. When confined, subjects were required to fast from all food and drink except water between meals and snacks served at the clinical research unit.
Each meal and/or snack served at the clinical research unit was standardized and was similar in caloric content and composition (except for the meal served as part of Treatment B) and was taken at approximately the same time in each period.
For all subjects, blood samples for the determination of ATR-101 plasma concentration were collected at pre-dose and 0.5, 1, 1.5, 2, 2.5, 3, 3.5, 4, 5, 6, 8, 12, 16, 24, 36, and 48 hours post-dose. PK parameters for plasma ATR-101 were calculated as follows: • AUC0-t: The area under the plasma concentration-time curve, from time 0 to the last measurable non-zero concentration, was calculated by the linear trapezoidal method. • AUC0-inf: The area under the plasma concentration-time curve from time 0 extrapolated to infinity. AUC0-inf was calculated as the sum of AUC0-t plus the ratio of the last measurable plasma concentration to the elimination rate constant. • AUC%extrap: Percent of AUC0-inf extrapolated, represented as
[formula] • Cmax: Maximum observed concentration. • tmax: Time to reach Cmax. If the maximum value occurred at more than one time point, tmax was defined as the first time point with this value. • ke1: Apparent first-order terminal elimination rate constant calculated from a semi-log plot of the plasma concentration versus time curve. […]

[1] = Treatment A (fasting with water), Maximum
[2] = Treatment A (fasting with water), Mean
[3] = Treatment A (fasting with water), Median
[4] = Treatment A (fasting with water), Minimum
[5] = Treatment A (fasting with water), individual subject, hydrochloride
[6] = Treatment B (fed with water), Maximum
[7] = Treatment B (fed with water), Mean
[8] = Treatment B (fed with water), Median
[9] = Treatment B (fed with water), Minimum
[10] = Treatment B (fed with water, high-fat breakfast), individual subject, hydrochloride
[11] = Treatment C (fasting with acidic beverage), Maximum
[12] = Treatment C (fasting with acidic beverage), Mean
[13] = Treatment C (fasting with acidic beverage), Median
[14] = Treatment C (fasting with acidic beverage), Minimum

CC(C)c1cccc(C(C)C)c1NC(=O)NCC1(c2ccc(N(C)C)cc2)CCCC1 [ATR-101, N-(2,6-bis(1-methylethyl)phenyl)-N′-((1-(4-(dimethylamino)-phenyl)cyclopentyl)methyl)urea hydrochloride]
AUC0-inf [1]: 5050 ng·h/mL
AUC0-t [1]: 4860 ng·h/mL
AUC% extrap [1]: 12.7%
Cmax [1]: 933 ng/mL
t1/2 [1]: 22.7 h
tmax [1]: 12.0 h
kel [1]: 0.0612
AUC% extrap [2]: 8.64%
kel [2]: 0.0406
AUC% extrap [3]: 9.43%
kel [3]: 0.0380
AUC0-inf [4]: 2430 ng·h/mL
AUC0-t [4]: 840 ng·h/mL
AUC% extrap [4]: 3.72%
Cmax [4]: 26.1 ng/mL
t1/2 [4]: 11.3 h
tmax [4]: 1.50 h
kel [4]: 0.0305
AUC0-inf [5]: 2740 and 4290 and 2630 and 2430 and 5050 and 2560 and 4700 and 4940 and 4370
AUC0-t [5]: 2450 and 3180 and 3810 and 2490 and 840 and 2200 and 4860 and 2330 and 1520 and 4100 and 4400 and 3880
AUC% extrap [5]: 10.6% and 6.68% and 11.2% (2×) and 5.32% and 9.43% and 3.72% and 8.82% and 12.7% and 4.61% and 10.8%
Cmax [5]: 509 ng/mL and 620 ng/mL and 807 ng/mL and 26.1 ng/mL and 612 ng/mL and 539 ng/mL and 306 ng/mL and 526 ng/mL and 486 ng/mL and 933 ng/mL and 842 ng/mL
tmax [5]: 2.5 h and 1.50 h and 12.0 h and 1.5 h and 3.00 h
kel [5]: 0.0378 and 0.0414 and 0.0347 and 0.0456 and 0.0380 and 0.0612 and 0.0404 and 0.0317 and 0.0531 and 0.0305 and 0.0318
AUC0-inf [6]: 14000 ng·h/mL
AUC0-t [6]: 13200 ng·h/mL
AUC% extrap [6]: 17.9%
Cmax [6]: 2060 ng/mL
t1/2 [6]: 30.7 h
tmax [6]: 5.00 h
kel [6]: 0.0603
AUC% extrap [7]: 8.00%
kel [7]: 0.0364
AUC% extrap [8]: 7.27%
kel [8]: 0.0366
AUC0-inf [9]: 3790 ng·h/mL
AUC0-t [9]: 3520 ng·h/mL
AUC% extrap [9]: 2.07%
Cmax [9]: 719 ng/mL
t1/2 [9]: 11.5 h
tmax [9]: 1.50 h
kel [9]: 0.0226
AUC0-inf [10]: 3790 and 6400 and 14000 and 5390 and 4540 and 7640 and 9000 and 7660 and 7670 and 5830 and 5820 and 4900 and 9990 and 7210
AUC0-t [10]: 3520 and 5930 and 13200 and 5280 and 4120 and 6890 and 8430 and 6810 and 6290 and 5420 and 5310 and 4740 and 9300 and 6570
AUC% extrap [10]: 7.07% and 7.35% and 5.87% and 2.07% and 9.33% and 9.87% and 6.38% and 1.1% and 17.9% and 7.19% and 8.76% and 3.35% and 6.89% and 8.80%
Cmax [10]: 1040 ng/mL and 1620 ng/mL and 2060 ng/mL and 1120 ng/mL and 848 ng/mL and 1340 ng/mL and 2000 ng/mL and 1210 ng/mL and 931 ng/mL and 719 ng/mL and 759 ng/mL and 1690 ng/mL and 993 ng/mL
t1/2 [10]: 19.3 h and 20.9 h and 16.9 h and 11.5 h and 25.1 h and 27.8 h and 18.0 h and 24.9 h and 30.7 h and 17.4 h and 23.9 h and 13.2 h and 17.7 h and 18.6 h
tmax [10]: 1.50 h and 2.50 h and 3.00 h and 5.00 h and 4.01 h and 3.57 h
kel [10]: 0.0359 and 0.0332 and 0.0410 and 0.0603 and 0.0276 and 0.0249 and 0.0385 and 0.0278 and 0.0226 and 0.0398 and 0.0290 and 0.0526 and 0.0392 and 0.0374
AUC0-inf [11]: 6970 ng·h/mL
AUC0-t [11]: 6430 ng·h/mL
AUC% extrap [11]: 21.5%
Cmax [11]: 1550 ng/mL
t1/2 [11]: 27.9 h
tmax [11]: 6.00 h
kel [11]: 0.0501
AUC% extrap [12]: 10.6%
kel [12]: 0.0377
AUC% extrap [13]: 8.95%
kel [13]: 0.0376
AUC0-inf [14]: 728 ng·h/mL
AUC0-t [14]: 572 ng·h/mL
AUC% extrap [14]: 3.84%
Cmax [14]: 19.8 ng/mL
t1/2 [14]: 13.8 h

Source: US20220117919A1, “ENHANCED BIOAVAILABILITY OF N-(2,6-BIS(1-METHYLETHYL)PHENYL)-N'-((1-(4-(DIMETHYLAMINO)-PHENYL)CYCLOPENTYL)METHYL)UREA HYDROCHLORIDE” (The Regents of the University of Michigan, priority 2015, published 2022)
